# “And” between values parts separate entries of the source, which are not always exact repeats. Equal values may be shown once. Read-outs that look alike come from different tables or passages of the source.
# Legend:
# Type in all cases: cell-based, human
# HCT116 p53+/+ = test: Quantification of cellular ATP levels (CellTiterGlo); conditions: for % ATP Activity (Average): HCT116 p53+/+ cells, average of runs, relative to 0 µM = 100
# Experimental: (§1) ARPE-19 and HCT116 p53^+/+ cells were seeded in 96-well opaque plates at a density of 7500 cells/well. 24 h after seeding, cells were treated for 20 h with a range of concentrations of [[…]]^6+, [L2Zn3]^6+, [[…]]^6+, or vehicle control (2-fold serial dilution from 100-3.125 μM) before determining total cellular ATP content by quantification of luminescence (CellTiterGlo® assay, Promega). ATP levels were normalised relative to levels in vehicle control-treated cells.
# ARPE-19 = test: as above; conditions: ARPE-19 cells, average of runs, relative to 0 µM = 100
# Experimental: as §1
# MiaPaCa2 = test: Chemosensitivity, 96 h continuous exposure, MTT assay;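 for SI (NPI): adult human brain neural progenitor non-cancer cells from an epilepsy surgery patient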;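 for Selectivity Index using the NPI non-cancer cell line: adult human brain neural progenitor non-cancer cells from an epilepsy surgery patient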
# How it was run: (§2)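 Cells seeded at 2 × 10^3/well (GBM1 3 × 10^3/well) and left overnight at 37 °C, then exposed continuously for 96 h to a range of compound concentrations (final DMSO 0.2%). Viability read by MTT, absorbance at 540 nm; IC50 taken from dose-response curves as concentration reducing cell growth by 50%.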
# BxPC3 = test: as above;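 for SI (NPI): adult human brain neural progenitor non-cancer cells from an epilepsy surgery patient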;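 for Selectivity Index using the NPI non-cancer cell line: adult human brain neural progenitor non-cancer cells from an epilepsy surgery patient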
# How it was run: as §2
# DLD-1 = test: as above
# How it was run: as §2
# PSN1 = test: as above
# How it was run: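 Growth inhibition is measured by MTT after cells are dosed for 96 h without washout. The 50% growth-reduction concentration is then interpolated from the curves.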
structure (smiles),measurement,setting,value
[Cu+2].[Cu+2].[Cu+2].c1ccc(-c2csc(NCCN(CCNc3nc(-c4ccccn4)cs3)CCNc3nc(-c4ccccn4)cs3)n2)nc1.c1ccc(-c2csc(NCCN(CCNc3nc(-c4ccccn4)cs3)CCNc3nc(-c4ccccn4)cs3)n2)nc1 [[L2Cu3]6+],ATP levels relative to vehicle control,"HCT116 p53+/+; HCT116, highest concentration of 100μM, 20h",< 50%
same,% ATP Activity (Average),HCT116 p53+/+; 3.125 µM complex,75.66%
same,% ATP Activity (Average),HCT116 p53+/+; 6.25 µM complex,75.32%
same,% ATP Activity (Average),HCT116 p53+/+; 12.5 µM complex,74.21%
same,% ATP Activity (Average),HCT116 p53+/+; 25 µM complex,71.91%
same,% ATP Activity (Average),HCT116 p53+/+; 50 µM complex,61.46%
same,% ATP Activity (Average),HCT116 p53+/+; 100 µM complex,38.46%
same,% ATP Activity (Average),ARPE-19; 3.125 µM complex,91.48%
same,% ATP Activity (Average),ARPE-19; 6.25 µM complex,92.26%
same,% ATP Activity (Average),ARPE-19; 12.5 µM complex,92.93%
same,% ATP Activity (Average),ARPE-19; 25 µM complex,95.14%
same,% ATP Activity (Average),ARPE-19; 50 µM complex,85.50%
same,% ATP Activity (Average),ARPE-19; 100 µM complex,56.08%
same,Selectivity index (ARPE19),MiaPaCa2; IC50 ARPE-19 / IC50 MiaPaCa2,4.46
same,Selectivity index (MCF10A),MiaPaCa2; IC50 MCF10A / IC50 MiaPaCa2,4.09
same,Selectivity Index using the NPI non-cancer cell line,MiaPaCa2; IC50 NP1 / IC50 MiaPaCa2,3.65
same,IC50,"MiaPaCa2; MiaPaCa2, 96 h, MTT, individual run, read-out: IC50 values for each replicate",17.1 µM and 6.6 µM and 6.32 µM and 5.21 µM and 18 µM and 17.6 µM
same,IC50,"MiaPaCa2; MiaPaCa2, 96 h, MTT, mean of at least 3 independent experiments, listed as [L2Cu3]^6+, read-out: Mean IC50",> 10 µM
same,IC50,"MiaPaCa2; MiaPaCa2, 96 h, MTT, mean of at least 3 independent experiments, read-out: Mean IC50",11.8 µM
same,IC50,"MiaPaCa2; MiaPaCa2, mean of replicates, read-out: Mean IC50",11.8 µM
same,IC50,"MiaPaCa2; MiaPaCa2, read-out: Mean IC50 values",11.8 µM
same,SI (ARPE19),MiaPaCa2; mean IC50 ARPE-19 / mean IC50 MiaPaCa2,4.46
same,SI (MCF10A),MiaPaCa2; mean IC50 MCF10A / mean IC50 MiaPaCa2,4.09
same,SI (NPI),MiaPaCa2; mean IC50 NP1 / mean IC50 MiaPaCa2,3.65
same,"Relative potency (+ anion to no anion), Ratio + anion:no anion","MiaPaCa2; ratio of IC50, MiaPaCa2",1
same,"Selectivity indices relative to ARPE-19, Ratio + anion:no anion","MiaPaCa2; ratio of SI (ARPE-19), MiaPaCa2",1
same,"Selectivity indices relative to MCF10A, Ratio + anion:no anion","MiaPaCa2; ratio of SI (MCF 10A), MiaPaCa2",1
same,IC50,"BxPC3; BXPC3, mean of replicates, read-out: Mean IC50",293 nM
same,IC50,"BxPC3; BXPC3, read-out: Mean IC50 values",293 nM
same,IC50,"BxPC3; BxPC3, 96 h, MTT, individual run, read-out: IC50 values for each replicate",226 nM and 267 nM and 443 nM and 237 nM
same,IC50,"BxPC3; BxPC3, 96 h, MTT, mean of at least 3 independent experiments, read-out: Mean IC50",293 nM
same,Selectivity index (ARPE19),BxPC3; IC50 ARPE-19 / IC50 BXPC3,179.62
same,Selectivity index (MCF10A),BxPC3; IC50 MCF10A / IC50 BXPC3,164.71
same,Selectivity Index using the NPI non-cancer cell line,BxPC3; IC50 NP1 / IC50 BXPC3,147.06
same,SI (ARPE19),BxPC3; mean IC50 ARPE-19 / mean IC50 BxPC3,179.62
same,SI (MCF10A),BxPC3; mean IC50 MCF10A / mean IC50 BxPC3,164.71
same,SI (NPI),BxPC3; mean IC50 NP1 / mean IC50 BxPC3,147.06
same,"Relative potency (+ anion to no anion), Ratio + anion:no anion","BxPC3; ratio of IC50, BXPC3",1
same,"Selectivity indices relative to ARPE-19, Ratio + anion:no anion","BxPC3; ratio of SI (ARPE-19), BXPC3",1
same,"Selectivity indices relative to MCF10A, Ratio + anion:no anion","BxPC3; ratio of SI (MCF 10A), BXPC3",1
same,IC50,"DLD-1; DLD-1, 96 h, MTT, mean of at least 3 independent experiments, read-out: Mean IC50",132 nM
same,IC50,"DLD-1; DLD-1, mean of replicates, read-out: Mean IC50",132 nM
same,IC50,"DLD-1; DLD-1, read-out: Mean IC50 values",132 nM
same,Selectivity index (ARPE19),DLD-1; IC50 ARPE-19 / IC50 DLD-1,398.71
same,Selectivity index (MCF10A),DLD-1; IC50 MCF10A / IC50 DLD-1,365.61
same,Selectivity Index using the NPI non-cancer cell line,DLD-1; IC50 NP1 / IC50 DLD-1,326.44
same,SI (ARPE19),DLD-1; mean IC50 ARPE-19 / mean IC50 DLD-1,398.71
same,SI (MCF10A),DLD-1; mean IC50 MCF10A / mean IC50 DLD-1,365.61
same,SI (NPI),DLD-1; mean IC50 NP1 / mean IC50 DLD-1,326.44
same,"Relative potency (+ anion to no anion), Ratio + anion:no anion","DLD-1; ratio of IC50, DLD-1",1
same,"Selectivity indices relative to ARPE-19, Ratio + anion:no anion","DLD-1; ratio of SI (ARPE-19), DLD-1",1
same,"Selectivity indices relative to MCF10A, Ratio + anion:no anion","DLD-1; ratio of SI (MCF 10A), DLD-1",1
same,Selectivity index (ARPE19),PSN1; IC50 ARPE-19 / IC50 PSN1,8.16
same,Selectivity index (MCF10A),PSN1; IC50 MCF10A / IC50 PSN1,7.48
same,Selectivity Index using the NPI non-cancer cell line,PSN1; IC50 NP1 / IC50 PSN1,6.68
same,IC50,"PSN1; PSN1, 96 h, MTT, individual run, read-out: IC50 values for each replicate",6.27 µM and 6.08 µM and 7.01 µM
same,IC50,"PSN1; PSN1, 96 h, MTT, mean of at least 3 independent experiments, listed as [L2Cu3]^6+, read-out: Mean IC50",> 1 µM
same,IC50,"PSN1; PSN1, 96 h, MTT, mean of at least 3 independent experiments, read-out: Mean IC50",6.45 µM
same,IC50,"PSN1; PSN1, mean of replicates, read-out: Mean IC50",6.45 µM
same,IC50,"PSN1; PSN1, read-out: Mean IC50 values",6.45 µM
same,SI (ARPE19),PSN1; mean IC50 ARPE-19 / mean IC50 PSN1,8.16
same,SI (MCF10A),PSN1; mean IC50 MCF10A / mean IC50 PSN1,7.48
same,SI (NPI),PSN1; mean IC50 NP1 / mean IC50 PSN1,6.68
same,"Relative potency (+ anion to no anion), Ratio + anion:no anion","PSN1; ratio of IC50, PSN1",1
same,"Selectivity indices relative to ARPE-19, Ratio + anion:no anion","PSN1; ratio of SI (ARPE-19), PSN1",1
same,"Selectivity indices relative to MCF10A, Ratio + anion:no anion","PSN1; ratio of SI (MCF 10A), PSN1",1

# — publication PMC8222254, “Self-assembly of an anion receptor with metal-dependent kinase inhibition and potent in vitro anti-cancer properties” (Nature Communications, 2021)
